Here are results for 3 compounds from patent publication US12343339B2, “Bisaminoquinolines and bisaminoacridines compounds and methods of their use” (THE TRUSTEES OF THE UNIVERSITY OF PENNSYLVANIA, priority 2019, dated 2025).

The test system of one data set is DLD-1 cells. In words: Cytotoxicity assay, cell proliferation (Alamar Blue). Conditions: Homo sapiens, 72 h. It is filed as cell-based. The method, then:
(§1) Media Preparation Protocol:— • Media composition for cell preservation (4 ml): 900 μl of Hi-FBS+[…] of DMSO Complete Media Preparation (500 ml): For DLD1n& A375:
(§2) Cell Culture Protocol:— 1) Protocol for Reviving Cell Line(s) • 1. Take out the cell vials from LN2 container & thaw immediately at 37° C. • 2. Wipe it with 70% alcohol properly • 3. Transfer to sterile centrifuge tubes containing 9 ml media & spin at 1000 rpm for 5 min. • 4. Discard the supernatant & resuspend the pellet in 2-3 ml media and transfer to T-75 or T-150 culture flasks containing 15 or 30 ml media respectively. • 5. Incubate at 37° C.-5% CO2. 2) Protocol for Sub-Culturing Cell Line(s)
(§3) Cells should be sub-cultured when they reach 70-80% confluence. • 1. Discard the media from cell culture flask. • 2. Add 3 to 4 ml of TrypLE Express dissociation solution; keep in CO2 incubator for ˜5 min. Mix gently to avoid cell clumping. • 3. Add 4.0 to 5.0 ml of complete growth medium and mix gently & transfer to centrifuge tube. • 4. Centrifuge at 1000 rpm for 5 min. • 5. Discard the supernatant & re-suspend the pellet in 3-4 ml of media. • 6. Count the cells in cell counter or using hemocytometer. • 7. Split the cells in 1:2 or 1:4 ratio into new culture flasks. • 8. Incubate cultures at 37° C.-5% CO2 to get confluence 3) Protocol for Preserving Cell Line(s) • 1. Discard the spent media from the TC flask. • 2. Add 3 to 4 ml of TrypLE Express dissociation solution; keep in CO2 incubator for ˜5 min. Mix gently to avoid cell clumping. • 3. Add 4.0 to 5.0 ml of complete growth medium and mix gently & transfer to centrifuge tube. • 4. Centrifuge at 1000 rpm for 5 min. • 5. Discard the supernatant & re-suspend the pellet in 3-4 ml of media. • 6. Count the cells in cell counter or using hemocytometer. • 7. Spin at 1000 rpm for 5 min, discard the supernatant and re-suspend the pellet in 900 μl of media+100 μl of DMSO (Freeze app. 1.5 to 3 million cells/vial). • 8. Keep the vials in −80° C. overnight & transfer to LN2 container. Cell Proliferation (Alamar Blue) Assay:— • Seed cells at 2000 cells in 100 μL/well in 96-well tissue culture plate. Leave outer wells without cells for background measurements. Incubate at 37° C./5% CO2 for 16-18 hours. • Add 10× concentration compound dilution or DMSO control so that the final concentration is 1× and DMSO concentration 0.5%. Compound is prepared in 3-fold serial dilutions. Incubate for 72 h at 37° C./5% CO2. • Add Alamar Blue™ reagent to each well with multi-channel pipette and tap gently on each side of the plate to mix. Incubate for 3 hours at 37° C./5% CO2. • Read plates on fluorescence reader (Tecan i-control, 1.11.1.0, Device: infinite 200, Serial number: 810001990) at 540 nm excitation, 590 nm emission wavelength. • Data analysis using Graph pad prism Assay Acceptance Criteria • S/N Ratio should be >3. • Z′ should be >0.4
In general terms: Resazurin is reduced to fluorescent resorufin, in cell work by metabolically active cells.

In another data set the test system is A375 cells. Described as above. Conditions: Homo sapiens, A-375, 72 h. It counts as cell-based. The procedure: as §1, §2, §3
The next data set relates to MiaPaCa-2 cells. The description is as above. It is filed as cell-based. The conditions noted are these: Homo sapiens, MIA PaCa-2, 72 h. The method, then: as §2, §3
The nature of data set [1]: Kinetic solubility across pH (PBS pH 7.4, FaSSGF pH 1.6, FaSSIF pH 6.5). The conditions noted are these: kinetic from dmso stock. It is filed as physicochemical. The procedure: Kinetic solubility method was used to determine the solubility of NCEs across pH ranges, PBS pH 7.4, FaSSGF pH 1.6 & FaSSIF pH 6.5.
Procedure • 1. Seven calibration standards (i.e. 1, 5, 10, 50, 100, 200 and 300 μM) were prepared in DMSO from the 20 mM primary stock solution. • 2. Dispensed an aliquot of 198 IL of 0.001 M PBS into duplicate wells of a multiscreen solubility filter plate. • 3. Subsequently, added 2 μL of test compound solution (20 mM primary stock solution), cover the plate and shake at 150 rotations per minute for 90 minutes. • 4. At the end of 90 minutes, samples were filtered using MultiScreen HTS vacuum Manifold assembly and the filtrate was collected into the acceptor plate. • 5. An aliquot of 150 μL of filtrate from the above 96-well acceptor plate was transferred into HIPLC vials and analyzed by HIPLC-UV.

A short description of a further data set: Plasma stability. Conditions: 3 μM, 37° C. It is filed as in vitro ADME. The method, then: Stability of drug assessed in plasma to determine the percent remaining and half-life of the compound.
Assay Procedure: • 1. Fresh blood was collected in tubes containing anticoagulant (K2 EDTA) and the plasma collected by centrifugation. • 2. 3 mM of the test compound was prepared in DMSO from 20 mM main stock. • 3. 1 μL of test compound (3 mM) was incubated at 37° C. in 999 μL of plasma (3 μM final concentrations, 0.1% DMSO, final volume 1,000 μL). • 4. The reactions were terminated at 0, 30, 60 and 120 min by addition of two volumes of acetonitrile, containing IS (200 ng/mL) resulting in protein precipitation. • 5. After termination of reaction at individual time points, the samples were stored at −80±10° C. till the completion of experiment. • 6. On completion of last incubation point, all the samples were centrifuge at 14,000 rpm for 10 min. • 7. Supernatant (200 μL) from each reaction tube was taken for LC-MS/MS analysis.

Data set [2] is described as follows: Buffer stability in phosphate buffered saline. It counts as physicochemical. The conditions noted are these: PBS pH 7.4, 3 μM, 37° C. The method, then:
Assay Procedure: • 1. Test compound was prepared at 3 mM in DMSO from 10 mM working stock. • 2. The experiment was conducted in Phosphate buffered saline with a final concentration of 3 μM. • 3. The vials were incubated at 37° C. in a hybridization oven for respective time points. • 4. After incubation time, equal volumes of quenching solution was added. • 5. Samples were centrifuged at 14,000 rpm for 5 min at 4° C. • 6. Supernatant was transferred into vials and analyzed in HIPLC.

A short description of data set [3]: Blood partitioning (blood to plasma ratio). It counts as in vitro ADME. Conditions: fresh pooled whole blood, fresh mouse blood, 37° C., read-out: Mice blood to plasma ratio. The procedure: Blood to plasma ratio defines the concentration of a drug in whole blood (that is, target drug containing both erythrocytes and plasma) to the concentration of target drug in plasma. The red blood cell partition coefficient is the ratio of the concentration of drug in the red blood cells (that is, not including plasma) to concentration of drug in plasma.
Assay Procedure: • 1. Fresh blood was collected. • 2. An aliquot of 50 μL blood was taken from individual tubes and centrifuged to check for any haemolysis. Tube with haemolysed blood was not considered for experiment. • 3. Non-haemolysed blood in individual tubes was pooled and incubated at 37° C. • 4. 999 μL aliquot of pooled blood was taken in individual tubes. One of these tubes was designated for Chloroquine (positive control). Incubations for the test compound were similarly done in other aliquot. • 5. 1 μL of test compound (0.1% DMSO concentration) or positive control solution was spiked into each of the above tubes. • 6. Above tubes were incubated at 37° C. for 30 min. • 7. Post incubation, an aliquot (˜50 μL) was taken and centrifuged to check for haemolysis. • 8. Subsequently, 100 μL of blood sample from the incubation mixture tube was transferred into a separate labeled tube and quenched with 200 μL of Acetonitrile containing Internal standard. • 9. […]

The mark [4] stands for this setting: average of N1 and N2, read-out: Average pIC50 (n = 2) (converted).
Where [5] appears, read: replicate N1, read-out: IC50 N1.
[6] abbreviates: replicate N1, read-out: pIC50 N1 (converted).
Where [7] appears, read: replicate N2, read-out: IC50 N2.
Setting [8] is: replicate N2, read-out: pIC50 N2 (converted).

The structures appear in SMILES notation. ≈ marks a conversion by molar mass, not a printed value. Like-named read-outs stand apart in the source and are kept apart here.

For the compound `COc1ccc2nc3cc(Cl)ccc3c(NCCOCCN(C)CCOCCNc3c4ccc(Cl)cc4nc4ccc(OC)cc34)c2c1` [Dioxo-DQ-551], the IC50 was 708 nM in the data set with DLD-1 cells (setting [4]); 330 nM with DLD-1 cells (setting [5]); 324 nM in the data set with DLD-1 cells (setting [6]); 1560 nM in the data set on DLD-1 cells (setting [7]); 1550 nM with DLD-1 cells (setting [8]); 794 nM with A375 cells (setting [4]). Further, the IC50 with A375 cells (setting [5]) is 440 nM; in the data set with A375 cells (setting [6]), 447 nM; with A375 cells (setting [7]), 1450 nM; in the data set with A375 cells (setting [8]) it was 1450 nM; with MiaPaCa-2 cells (setting [4]) it was 174 nM; in the data set on MiaPaCa-2 cells (setting [5]), 150 nM. The IC50 in the data set on MiaPaCa-2 cells (setting [6]) is 151 nM; in the data set on MiaPaCa-2 cells (setting [7]), 210 nM; in the data set on MiaPaCa-2 cells (setting [8]), 204 nM. Besides, the solubility (usually the dissolved amount per volume that the medium holds) at 90 min in data set [1] (aqueous buffer, PBS pH 7.4, 90 minutes shaking, read-out: PBS pH 7.4 solubility) was 39 µM (≈ 26.9 µg/mL); in data set [1] (fassgf or other biorelevant, FaSSGF pH 1.6, 90 minutes shaking, read-out: FaSSGF pH 1.6 solubility), roughly 200 µM (≈ 138 µg/mL); in data set [1] (FaSSIF pH 6.5, 90 minutes shaking, read-out: FaSSIF pH 6.5 solubility), 62 µM (≈ 42.7 µg/mL). For the same compound, the “Mouse plasma stability (% remaining @ 120 min)” value in the data set “Plasma stability” stood at 88%. Also, the “PBS pH 7.4 stability (% remaining @120 min)” value in data set [2] was found to be 100%. Also, the blood plasma ratio at 30 min in data set [3] was 12.6.

As for `COc1cccc2c1C(=O)c1c(O)c3c(c(O)c1C2=O)C[C@@](O)(C(=O)CO)C[C@@H]3O[C@H]1C[C@H](N)[C@H](O)[C@H](C)O1` [Doxorubicin], the IC50 with DLD-1 cells (setting [4]) was 380 nM; in the data set on DLD-1 cells (setting [5]), 250 nM; in the data set on DLD-1 cells (setting [6]), 245 nM; with DLD-1 cells (setting [7]), 590 nM; in the data set on DLD-1 cells (setting [8]) it was 589 nM; in the data set with A375 cells (setting [4]), 28.2 nM. The IC50 with A375 cells (setting [5]) was 20 nM; in the data set on A375 cells (setting [6]) it was 24.5 nM; in the data set with A375 cells (setting [7]), 30 nM; in the data set with A375 cells (setting [8]), 31.6 nM; in the data set with MiaPaCa-2 cells (setting [4]), 89.1 nM; in the data set on MiaPaCa-2 cells (setting [5]) it was 100 nM. The figures for the IC50 in the data set with MiaPaCa-2 cells (setting [6]), in the data set with MiaPaCa-2 cells (setting [7]) and in the data set on MiaPaCa-2 cells (setting [8]) were 97.7 nM, 80 nM and 81.3 nM, respectively.

On to `CCN(CC)CCCC(C)Nc1c2ccc(Cl)cc2nc2ccc(OC)cc12` (stereo not drawn) [Quinacrine], for which the IC50 was 4370 nM in the data set on DLD-1 cells (setting [4]); 2520 nM in the data set on DLD-1 cells (setting [5]); 2510 nM in the data set with DLD-1 cells (setting [6]); 7540 nM in the data set on DLD-1 cells (setting [7]); 7590 nM with DLD-1 cells (setting [8]); 2240 nM in the data set with A375 cells (setting [4]). Also, the IC50 was 1280 nM in the data set on A375 cells (setting [5]); 1290 nM in the data set with A375 cells (setting [6]); 3840 nM in the data set with A375 cells (setting [7]); 3800 nM in the data set with A375 cells (setting [8]); 2510 nM in the data set on MiaPaCa-2 cells (setting [4]); 2680 nM with MiaPaCa-2 cells (setting [5]). Further, the IC50 is 2690 nM in the data set with MiaPaCa-2 cells (setting [6]), 2340 nM in the data set with MiaPaCa-2 cells (setting [7]) and 2340 nM in the data set with MiaPaCa-2 cells (setting [8]).
